Tests used:
[1] = test system: MOLM-14 D835Y cells, FLT3 ITD and FLT3 D835Y; assay: Cell proliferation assay (CellTiter-Glo), MOLM-14 D835Y; format: cell-based; settings: Homo sapiens, 72 h, 3d-Growth, GMean
Procedure, shortened: (§1)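 MOLM-14 AML cells (endogenous FLT3 ITD, AC220-selected D835Y or F691L variants) or murine Ba/F3 expressing full-length FLT3 ITD/D835Y, without IL-3 for FLT3 dependence, 1×10^4 cells/well. Eight-point 1:3 series from 1 μM final, 0.2% DMSO, 3 days at 37 °C. CellTiter-Glo luminescence (ATP) gave IC50.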

[2] = biological target: T1, BA/F3-FLT3-ITD + D835Y cells (Homo sapiens, UniProt P36888, D835Y, cells depend on it, form not given); assay: Cell proliferation assay (CellTiter-Glo), engineered BA/F3 cells; format: cell-based, murine; settings: BaF3 FLT3 ITD/D835Y cells, 3d-Growth; read-out: BaF3_FLT3 ITD/D835Y 3d-Growth: IC50
T1 sequence (P36888 1-993 D835Y): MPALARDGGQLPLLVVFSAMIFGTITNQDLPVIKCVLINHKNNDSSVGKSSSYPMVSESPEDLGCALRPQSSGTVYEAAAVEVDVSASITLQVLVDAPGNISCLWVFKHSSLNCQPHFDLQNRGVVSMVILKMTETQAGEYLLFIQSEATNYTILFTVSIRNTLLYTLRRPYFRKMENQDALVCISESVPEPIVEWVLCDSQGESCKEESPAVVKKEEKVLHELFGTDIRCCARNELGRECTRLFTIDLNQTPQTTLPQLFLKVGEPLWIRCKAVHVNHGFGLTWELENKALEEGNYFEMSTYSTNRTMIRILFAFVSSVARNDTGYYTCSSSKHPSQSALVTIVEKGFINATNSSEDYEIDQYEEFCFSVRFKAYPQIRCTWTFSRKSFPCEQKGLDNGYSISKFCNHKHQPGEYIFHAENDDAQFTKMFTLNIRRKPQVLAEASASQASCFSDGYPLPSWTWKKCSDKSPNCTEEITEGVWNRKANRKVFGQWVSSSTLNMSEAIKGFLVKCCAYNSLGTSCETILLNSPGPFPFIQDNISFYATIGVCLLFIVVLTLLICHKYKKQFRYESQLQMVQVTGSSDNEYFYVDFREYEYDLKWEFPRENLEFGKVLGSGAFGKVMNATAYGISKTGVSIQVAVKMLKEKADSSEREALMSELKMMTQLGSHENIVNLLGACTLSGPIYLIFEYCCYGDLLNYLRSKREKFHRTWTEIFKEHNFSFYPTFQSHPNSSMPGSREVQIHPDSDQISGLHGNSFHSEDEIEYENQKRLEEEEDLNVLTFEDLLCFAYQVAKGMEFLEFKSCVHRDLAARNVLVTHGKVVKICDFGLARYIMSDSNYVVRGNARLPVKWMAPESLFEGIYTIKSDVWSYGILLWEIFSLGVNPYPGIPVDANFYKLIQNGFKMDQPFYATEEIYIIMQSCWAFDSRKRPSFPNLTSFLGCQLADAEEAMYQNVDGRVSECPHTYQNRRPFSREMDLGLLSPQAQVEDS
Procedure, shortened: as §1

`CNC1CCN(C(=O)c2cccc(-c3cnc4[nH]c(-c5cn(C)nc5C)cc4c3)n2)C1` (stereo not shown) [Compound P-0049, [6-[2-(1,3-dimethylpyrazol-4-yl)-1H-pyrrolo[2,3-b]pyridin-5-yl]-2-pyridyl]-[3-(methylamino)pyrrolidin-1-yl]methanone] showed an IC50 [1] of 0.0001 to 10 µM and a GI50 [2] of 0.0001 to 10 µM.
`O=S(=O)(NC1CNC1)c1cccc(-c2cnc3[nH]c(-c4ccccc4)cc3c2)n1` [Compound P-0071, N-(azetidin-3-yl)-6-(2-phenyl-1H-pyrrolo[2,3-b]pyridin-5-yl)pyridine-2-sulfonamide] was tested, and the IC50 [1] was 0.0001 to 10 µM and the GI50 [2] was 0.0001 to 10 µM.
`NC1CCN(C(=O)c2n[nH]c3ccc(-c4cnc5[nH]c(-c6ccccc6)cc5c4)cc23)CC1` [Compound P-0012, (4-amino-1-piperidyl)-[5-(2-phenyl-1H-pyrrolo[2,3-b]pyridin-5-yl)-1H-indazol-3-yl]methanone] gave an IC50 [1] of 0.0001 to 10 µM and a GI50 [2] of 0.0001 to 10 µM.
`CNC1CCN(C(=O)c2cccc(-c3cnc4[nH]c(-c5cccc(C#N)c5)cc4c3)n2)C1` (stereo not shown) [Compound P-0062, 3-[5-[6-[3-(methylamino)pyrrolidine-1-carbonyl]-2-pyridyl]-1H-pyrrolo[2,3-b]pyridin-2-yl]benzonitrile] gave an IC50 [1] of 0.0001 to 10 µM and a GI50 [2] of 0.0001 to 10 µM.
With `CNC1CCN(C(=O)c2cccc(-c3cnc4[nH]c(-c5ccc(F)cc5)cc4c3)n2)C1` (stereo not shown) [Compound P-0055, [6-[2-(4-fluorophenyl)-1H-pyrrolo[2,3-b]pyridin-5-yl]-2-pyridyl]-[3-(methylamino)pyrrolidin-1-yl]methanone] the IC50 [1] was 0.0001 to 10 µM and the GI50 [2] was 0.0001 to 10 µM.
Compound `O=C(c1cccc(-c2cnc3[nH]c(-c4ccccc4)cc3c2)n1)N1CC(F)(F)C1` [Compound P-0090, (3,3-difluoroazetidin-1-yl)-[6-(2-phenyl-1H-pyrrolo[2,3-b]pyridin-5-yl)-2-pyridyl]methanone] has an IC50 [1] of 0.0001 to 10 µM and a GI50 [2] of 0.0001 to 10 µM.
`CNC1CCN(C(=O)c2cccc(-c3cnc4[nH]c(-c5ccnc(OC)c5)cc4c3)n2)C1` (stereo not shown) [Compound P-0060, [6-[2-(2-methoxy-4-pyridyl)-1H-pyrrolo[2,3-b]pyridin-5-yl]-2-pyridyl]-[3-(methylamino)pyrrolidin-1-yl]methanone] showed an IC50 [1] of 0.0001 to 10 µM and a GI50 [2] of 0.0001 to 10 µM.
Compound `O=C(c1cccc(-c2cnc3[nH]c(-c4ccccc4)cc3c2)n1)N1CCC(NC2CC2)C1` (stereo not shown) [Compound P-0085, [3-(cyclopropylamino)pyrrolidin-1-yl]-[6-(2-phenyl-1H-pyrrolo[2,3-b]pyridin-5-yl)-2-pyridyl]methanone] has an IC50 [1] of 0.0001 to 10 µM and a GI50 [2] of 0.0001 to 10 µM.
Compound `CNC1CN(C(=O)c2cccc(-c3cnc4[nH]c(-c5ccccc5)cc4c3)n2)C1` [Compound P-0052, [3-(methylamino)azetidin-1-yl]-[6-(2-phenyl-1H-pyrrolo[2,3-b]pyridin-5-yl)-2-pyridyl]methanone] has an IC50 [1] of 0.0001 to 10 µM and a GI50 [2] of 0.0001 to 10 µM.
Compound `CNC1CCN(S(=O)(=O)c2cccc(-c3cnc4[nH]c(-c5ccccc5)cc4c3)n2)C1` (stereo not shown) [Compound P-0063, N-methyl-1-[[6-(2-phenyl-1H-pyrrolo[2,3-b]pyridin-5-yl)-2-pyridyl]sulfonyl]pyrrolidin-3-amine] has an IC50 [1] of 0.0001 to 10 µM and a GI50 [2] of 0.0001 to 10 µM.
`NC1CCC(NC(=O)c2cccc(-c3cnc4[nH]c(-c5ccccc5)cc4c3)n2)CC1` (stereo not shown) [Compound P-0018, N-(4-aminocyclohexyl)-6-(2-phenyl-1H-pyrrolo[2,3-b]pyridin-5-yl)pyridine-2-carboxamide] was tested, and the IC50 [1] was 0.0001 to 10 µM and the GI50 [2] was 0.0001 to 10 µM.
`CN1CC(NC(=O)c2cccc(-c3cnc4[nH]c(-c5ccccc5)cc4c3)n2)C1` [Compound P-0075, N-(1-methylazetidin-3-yl)-6-(2-phenyl-1H-pyrrolo[2,3-b]pyridin-5-yl)pyridine-2-carboxamide] showed an IC50 [1] of 0.0001 to 10 µM and a GI50 [2] of 0.0001 to 10 µM.
Compound `CN[C@@H]1CCN(C(=O)c2cccc(-c3cnc4[nH]c(-c5ccccc5)cc4c3)n2)C1` [Compound P-0058, [(3R)-3-(methylamino)pyrrolidin-1-yl]-[6-(2-phenyl-1H-pyrrolo[2,3-b]pyridin-5-yl)-2-pyridyl]methanone] has an IC50 [1] of 0.0001 to 10 µM and a GI50 [2] of 0.0001 to 10 µM.
`CNC1CCN(C(=O)c2cccc(-c3cnc4[nH]c(C5=CCC(C)(C)CC5)cc4c3)n2)C1` (stereo not shown) [Compound P-0070, [6-[2-(4,4-dimethylcyclohexen-1-yl)-1H-pyrrolo[2,3-b]pyridin-5-yl]-2-pyridyl]-[3-(methylamino)pyrrolidin-1-yl]methanone] showed an IC50 [1] of 0.0001 to 10 µM and a GI50 [2] of 0.0001 to 10 µM.
Work on `COC1CN(C(=O)c2cccc(-c3cnc4[nH]c(-c5ccccc5)cc4c3)n2)C1` [Compound P-0091, (3-methoxyazetidin-1-yl)-[6-(2-phenyl-1H-pyrrolo[2,3-b]pyridin-5-yl)-2-pyridyl]methanone] yielded an IC50 [1] of 0.0001 to 10 µM and a GI50 [2] of 0.0001 to 10 µM.
Compound `NC1CCN(C(=O)c2cccc(-c3cnc4[nH]c(-c5ccccc5)cc4c3)n2)CC1` [Compound P-0013, (4-amino-1-piperidyl)-[6-(2-phenyl-1H-pyrrolo[2,3-b]pyridin-5-yl)-2-pyridyl]methanone] has an IC50 [1] of 0.0001 to 10 µM and a GI50 [2] of 0.0001 to 10 µM.
For `O=S(=O)(NC1CCNCC1)c1cccc(-c2cnc3[nH]c(-c4ccccc4)cc3c2)n1` [Compound P-0086, 6-(2-phenyl-1H-pyrrolo[2,3-b]pyridin-5-yl)-N-(4-piperidyl)pyridine-2-sulfonamide], the IC50 [1] was 0.0001 to 10 µM and the GI50 [2] was 0.0001 to 10 µM.
Compound `CNCC1CCN(C(=O)c2cccc(-c3cnc4[nH]c(-c5ccccc5)cc4c3)n2)C1` (stereo not shown) [Compound P-0079, [3-(methylaminomethyl)pyrrolidin-1-yl]-[6-(2-phenyl-1H-pyrrolo[2,3-b]pyridin-5-yl)-2-pyridyl]methanone] has an IC50 [1] of 0.0001 to 10 µM and a GI50 [2] of 0.0001 to 10 µM.
For `CN1CCC(NC(=O)c2cccc(-c3cnc4[nH]c(-c5ccccc5)cc4c3)n2)C1` (stereo not shown) [Compound P-0064, N-(1-methylpyrrolidin-3-yl)-6-(2-phenyl-1H-pyrrolo[2,3-b]pyridin-5-yl)pyridine-2-carboxamide], the IC50 [1] was 0.0001 to 10 µM and the GI50 [2] was 0.0001 to 10 µM.
For `NC1CCN(S(=O)(=O)c2cccc(-c3cnc4[nH]c(-c5ccccc5)cc4c3)n2)CC1` [Compound P-0073, 1-[[6-(2-phenyl-1H-pyrrolo[2,3-b]pyridin-5-yl)-2-pyridyl]sulfonyl]piperidin-4-amine], the IC50 [1] was 0.0001 to 10 µM and the GI50 [2] was 0.0001 to 10 µM.
In the case of `O=S(=O)(NC1CCNC1)c1cccc(-c2cnc3[nH]c(-c4ccccc4)cc3c2)n1` (stereo not shown) [Compound P-0072, 6-(2-phenyl-1H-pyrrolo[2,3-b]pyridin-5-yl)-N-pyrrolidin-3-yl-pyridine-2-sulfonamide], the IC50 [1] is reported as 0.0001 to 10 µM and the GI50 [2] is reported as 0.0001 to 10 µM.
For `O=C(Nc1cccc(-c2cnc3[nH]c(-c4ccccc4)cc3c2)n1)C1CNC1` [Compound P-0084, N-[6-(2-phenyl-1H-pyrrolo[2,3-b]pyridin-5-yl)-2-pyridyl]azetidine-3-carboxamide], the IC50 [1] was 0.0001 to 10 µM and the GI50 [2] was 0.0001 to 10 µM.
In the case of `CNC1CCN(C(=O)c2cccc(-c3cnc4[nH]c(-c5cnn(CC(F)(F)F)c5)cc4c3)n2)C1` (stereo not shown) [Compound P-0061, [3-(methylamino)pyrrolidin-1-yl]-[6-[2-[1-(2,2,2-trifluoroethyl)pyrazol-4-yl]-1H-pyrrolo[2,3-b]pyridin-5-yl]-2-pyridyl]methanone], the IC50 [1] is reported as 0.0001 to 10 µM and the GI50 [2] is reported as 0.0001 to 10 µM.

Source: US9938273B2 (Plexxikon Inc., priority 2015, dated 2018)
